Experimental data from the CheMixHub viscosity set.

Test: xn = mol fraction of the nth substance listed

CCCCN + CCCCN(CCCC)CCCC
viscosity [mPa·s], 101 kPa
Details	x2 = 0.0993	x2 = 0.193	x2 = 0.3946	x2 = 0.4948	x2 = 0.5888	x2 = 0.7738	x2 = 0.8887
303.15 K	0.5014	0.566	0.7175	0.7961	0.8701	1.013	1.094
313.15 K	0.4423	0.4968	0.6233	0.688	0.7498	0.8682	0.9377

CCCCN + CCCCCCCCO
viscosity [mPa·s], 101.33 kPa
Details	303.15 K	313.15 K	323.15 K
x1 = 0.094	5.27	3.765	–
x1 = 0.1	5.075	3.779	2.828
x1 = 0.1949	4.391	3.129	–
x1 = 0.2011	4.061	3.065	2.358
x1 = 0.288	3.626	2.585	–
x1 = 0.3	3.239	2.487	1.942
x1 = 0.4015	2.547	1.984	1.576
x1 = 0.4199	2.665	1.929	–
x1 = 0.5003	1.995	1.59	1.289
x1 = 0.5164	2.065	1.521	–
x1 = 0.6002	1.528	1.235	1.021
x1 = 0.619	1.523	1.154	–
x1 = 0.7003	1.141	0.945	0.791
x1 = 0.7192	1.103	0.8639	–
x1 = 0.7998	0.847	0.716	0.614
x1 = 0.8084	0.8208	0.6658	–
x1 = 0.9	0.623	0.537	0.466
x1 = 0.9064	0.5902	0.5049	–

CCCCN + NC1CCCCC1
298.15 K, 101 kPa
Details	viscosity [mPa·s]
x2 = 0.0757	0.6805
x2 = 0.1557	0.8796
x2 = 0.2401	1.111
x2 = 0.3296	1.33
x2 = 0.4244	1.548
x2 = 0.5252	1.774
x2 = 0.6324	1.954
x2 = 0.7468	2.035
x2 = 0.8691	1.976

O=C(O)C(Cl)(Cl)Cl + CCCCOC(C)=O
323.15 K, 101 kPa
Details	viscosity [mPa·s]
x2 = 0.104	4.361
x2 = 0.187	3.749
x2 = 0.3013	2.85
x2 = 0.379	2.406
x2 = 0.494	1.798
x2 = 0.584	1.419
x2 = 0.7106	0.996
x2 = 0.7901	0.81
x2 = 0.929	0.588

CCCCN + CCCCCCCC
303.15 K, 101.33 kPa
Details	viscosity [mPa·s]
x1 = 0.1275	0.462
x1 = 0.2962	0.441
x1 = 0.4015	0.433
x1 = 0.5214	0.428
x1 = 0.6438	0.42
x1 = 0.7573	0.434
x1 = 0.9231	0.478

Cc1ccncc1 + CCCO
298.15 K, 101.33 kPa
Details	viscosity [mPa·s]
x2 = 0.091	0.9024
x2 = 0.2095	0.9381
x2 = 0.3419	1.007
x2 = 0.4177	1.071
x2 = 0.5662	1.168
x2 = 0.7017	1.327
x2 = 0.7646	1.405
x2 = 0.8291	1.52
x2 = 0.867	1.591

CCn1ccnc1 + O
viscosity [mPa·s], 100 kPa
Details	298.15 K	308.15 K	318.15 K
x1 = 0.05	1.48	1.16	0.94
x1 = 0.1007	2.04	1.56	1.23
x1 = 0.1995	2.99	2.21	1.7
x1 = 0.2988	3.68	2.67	2.03
x1 = 0.3937	4.05	2.92	2.19
x1 = 0.4933	4.05	2.93	2.21
x1 = 0.6011	3.84	2.81	2.14
x1 = 0.695	3.18	2.41	1.89
x1 = 0.7956	2.65	2.07	1.67
x1 = 0.89	2.27	1.82	1.5
x1 = 0.9542	2.05	1.67	1.39

O=[N+]([O-])[O-].[Ag+] + CC#N
298.15 K, 101 kPa
Details	viscosity [mPa·s]
x1 = 0.012	0.409
x1 = 0.03806	0.524
x1 = 0.1017	1.046
x1 = 0.2421	6.48

CCCCN + Cc1ccccc1
303.15 K, 101 kPa
Details	viscosity [mPa·s]
x1 = 0.0685	0.51
x1 = 0.1474	0.497
x1 = 0.2553	0.485
x1 = 0.328	0.474
x1 = 0.4247	0.464
x1 = 0.5197	0.457
x1 = 0.6107	0.453
x1 = 0.6993	0.449
x1 = 0.7946	0.446
x1 = 0.8819	0.445
x1 = 0.9407	0.444
x2 = 0.1475	0.4405
x2 = 0.2127	0.441
x2 = 0.2918	0.439
x2 = 0.3842	0.4402
x2 = 0.5074	0.4449
x2 = 0.6083	0.4543
x2 = 0.7064	0.4677
x2 = 0.8686	0.4956
